IC50 data for 59 compounds are collected here from US20060252807A1, “Novel ortho-terphenyl inhibitors of p38 kinase and methods of treating inflammatory disorders” (Kalypsys, Inc., priority 2005, published 2006).

One may read the IC50 as the concentration needed to halve the response being measured. A higher IC50 goes with weaker potency.

In one experiment the target is T1, active p38 alpha enzyme (Upstate Biotechnology) (Homo sapiens, UniProt Q16539).
T1 construct: purchased Upstate Biotechnology
T1 sequence (Q16539 whole entry): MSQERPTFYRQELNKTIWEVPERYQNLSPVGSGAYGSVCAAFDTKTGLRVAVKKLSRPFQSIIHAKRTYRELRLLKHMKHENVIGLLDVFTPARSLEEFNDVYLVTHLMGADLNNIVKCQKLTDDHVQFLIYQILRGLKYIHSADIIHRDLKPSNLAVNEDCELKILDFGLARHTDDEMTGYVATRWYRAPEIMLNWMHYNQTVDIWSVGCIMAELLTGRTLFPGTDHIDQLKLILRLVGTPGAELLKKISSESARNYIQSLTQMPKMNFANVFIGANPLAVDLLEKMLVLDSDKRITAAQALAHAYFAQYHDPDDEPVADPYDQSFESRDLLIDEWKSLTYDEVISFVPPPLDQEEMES
Description: p38α biochemical assay (ATP turnover, luminescent detection, Cambrex PKlight). Conditions: p38α biochemical assay, Table 1 Biological Activity. A digest of the protocol: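 p38α + MapkapK2 (whole protein substrate) + 1.4 uM ATP final; Tris/MOPS buffer with MgCl2, CaCl2, EGTA, EDTA, glycerol, β-ME, BSA; 2 h at 30C; luminescent detection of remaining ATP.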
Compound `CC(C)NC(=O)c1csc(-c2oc(CNC(=O)C=O)nc2-c2ccc(F)cc2)n1` [Example 99] displayed a concentration for half-maximal inhibition (IC50) of more than 1 µM.
`CCC(C)NC(=O)n1ccc(-c2c(-c3ccc(Cl)cc3)noc2C)n1` (centres unmarked) [Example 4, 3-|3-(4-Chloro-phenyl)-5-methyl-isoxazol-4-yl|-pyrazole-1-carboxylic acid sec-butylamide] registered an IC50 not above 1 µM.
Compound `CC(C)NC(=O)c1csc(-c2oc(CN3CCN(C(=O)/C=C/c4ccccc4)CC3)nc2-c2ccc(F)cc2)n1` [Example 368] gave an IC50 of more than 1 µM.
Still for that read-out and setting: as for `CC(C)NC(=O)c1csc(-c2c(-c3ccc(F)cc3)noc2CNC(=O)c2c(F)c(F)c(F)c(F)c2F)n1` [Example 757], the figure is more than 1 µM; as for `CC(C)NC(=O)c1csc(-c2c(-c3ccc(F)cc3)noc2CNC(=O)CC#N)n1` [Example 575], not above 1 µM; as for `COc1ccc(C(=O)N2CCN(Cc3nc(-c4ccc(F)cc4)c(-c4nc(C(=O)NC(C)C)cs4)o3)CC2)c(O)c1` [Example 425], not above 1 µM.
Same read-out and setting: as for `COc1cc(C(=O)N2CCN(Cc3nc(-c4ccc(F)cc4)c(-c4nc(C(=O)NC(C)C)cs4)o3)CC2)c([N+](=O)[O-])cc1OC` [Example 544], the figure is more than 1 µM.
Still for that read-out and setting: the result for `CC(C)NC(=O)c1csc(-c2c(-c3ccc(F)cc3)noc2CNC(=O)c2cc3ccccc3o2)n1` [Example 638] reads more than 1 µM; that for `COc1ccc(Br)c(C(=O)N2CCN(Cc3nc(-c4ccc(F)cc4)c(-c4nc(C(=O)NC(C)C)cs4)o3)CC2)c1` [Example 553], more than 1 µM; that for `COc1ccc(C(=O)NCc2nc(-c3ccc(F)cc3)c(-c3nc(C(=O)NC(C)C)cs3)o2)c(OC)c1` [Example 225], more than 1 µM.
Consider `Cc1ccc(C(=O)NCc2nc(-c3ccc(F)cc3)c(-c3nc(C(=O)NC(C)C)cs3)o2)cc1Br` [Example 293], for which the IC50 is more than 1 µM.
Turning to `CC(C)NC(=O)c1csc(-c2c(-c3ccc(F)cc3)noc2CNC(=O)c2ccc3c(c2)OCO3)n1` [Example 652], the IC50 was more than 1 µM.
Still for that read-out and setting: as for `Cc1c(C(=O)NCc2nc(-c3ccc(F)cc3)c(-c3nc(C(=O)NC(C)C)cs3)o2)oc2ccccc12` [Example 202], the figure is more than 1 µM; as for `CC(C)NC(=O)c1csc(-c2c(-c3ccc(F)cc3)noc2CNC(=O)c2cccc(F)c2F)n1` [Example 633], more than 1 µM; as for `CC(C)NC(=O)c1csc(-c2c(-c3ccc(F)cc3)noc2CNC(=O)c2ccccc2Oc2ccccc2)n1` [Example 764], more than 1 µM.
`CC(=O)NC(Cc1ccc(O)cc1)C(=O)N1CCN(Cc2nc(-c3ccc(F)cc3)c(-c3nc(C(=O)NC(C)C)cs3)o2)CC1` (centres unmarked) [Example 542] had an IC50 of more than 1 µM.
Compound `CC(C)NC(=O)c1csc(-c2c(-c3ccc(F)cc3)noc2CNC(=O)C2CCCCC2)n1` [Example 593] gave a half-maximal inhibitory concentration (IC50) of more than 1 µM.
For `COc1ccccc1CC(=O)N1CCN(Cc2nc(-c3ccc(F)cc3)c(-c3nc(C(=O)NC(C)C)cs3)o2)CC1` [Example 419], the IC50 is not above 1 µM.
Take `CC(C)NC(=O)c1csc(-c2oc(CN3CCN(C(=O)C4CCCCN4C(=O)OC(C)(C)C)CC3)nc2-c2ccc(F)cc2)n1` (centres unmarked) [Example 548]: the half-inhibitory concentration (IC50) is more than 1 µM.
Take `CC(C)NC(=O)c1csc(-c2oc(CN3CCN(C(=O)c4ccc(F)c(F)c4)CC3)nc2-c2ccc(F)cc2)n1` [Example 398]: the IC50 was more than 1 µM.
Same read-out and setting: as for `CC(C)NC(=O)c1csc(-c2oc(CN3CCN(C(=O)c4ccccc4C(=O)c4ccc(O)cc4)CC3)nc2-c2ccc(F)cc2)n1` [Example 559], the figure is more than 1 µM.

The same experiment, now with this note: p38α kinase; Table 1 Biological Activity.
Take `COC[C@@H]1CCCN1C(=O)c1csc(-c2sc(C)nc2-c2ccc(F)cc2)n1` [Example 1862]: the half-inhibitory concentration (IC50) is not above 1 µM.
Same read-out and setting: as for `Cc1nc(-c2ccc(F)cc2)c(-c2nc(C(=O)NCCC(C)(C)C)cs2)s1` [Example 1734], the figure is more than 1 µM; as for `CCC(C)C(NC(=O)OC(C)(C)C)C(=O)NCc1onc(-c2ccc(F)cc2)c1-c1nc(C(=O)NC(C)C)cs1` (centres unmarked) [Example 803], more than 1 µM; as for `CC(C)NC(=O)c1csc(-c2c(-c3ccc(F)cc3)n[nH]c2C2CCN(C(=O)CCc3cccc(C(F)(F)F)c3)CC2)n1` [Example 1014], more than 1 µM.
Same read-out and setting: the result for `Cc1nc(-c2ccc(F)cc2)c(-c2nc(C(=O)N3CCN(c4ccc(Cl)cc4)CC3)cs2)s1` [Example 1925] reads more than 1 µM; that for `CC(C)NC(=O)c1csc(-c2c(-c3ccc(F)cc3)noc2CN2CCCC3CCCCC32)n1` (centres unmarked) [Example 1555], more than 1 µM; that for `COCCOCn1nc(-c2ccc(F)cc2)c(-c2nc(C=NOC)cs2)c1C` (single isomer, unassigned) [Example 2186, 2-|3-(4-Fluoro-phenyl)-1-(2-methoxy-ethoxymethyl)-5-methyl-1H-pyrazol-4-yl|-thiazole-4-carbaldehyde O-methyl-oxime], more than 1 µM.
Still for that read-out and setting: as for `Cc1nc(-c2ccc(F)cc2)c(-c2nc(C(=O)N(C)CCc3ccccn3)cs2)s1` [Example 1878], the figure is more than 1 µM; as for `COc1ccc(CNC(=O)c2csc(-c3sc(C)nc3-c3ccc(F)cc3)n2)cc1OC` [Example 1814], not above 1 µM.
With `CC(C)NC(=O)c1csc(-c2oc(CN(C)CCO)nc2-c2ccc(F)cc2)n1` [Example 1190], the half-maximal inhibitory concentration (IC50) was more than 1 µM.
Still for that read-out and setting: the result for `CC(C)NC(=O)c1csc(-c2oc(CN3CCN(c4ccc(F)cc4F)CC3)nc2-c2ccc(F)cc2)n1` [Example 1276] reads more than 1 µM; that for `Cc1nc(-c2ccc(F)cc2)c(-c2nc(C(=O)Nc3cccc(F)c3C)cs2)s1` [Example 1977], more than 1 µM; that for `CC(C)NC(=O)c1csc(-c2c(-c3ccc(F)cc3)n[nH]c2C2CCN(C(=O)C(C)NC(=O)OC(C)(C)C)CC2)n1` (centres unmarked) [Example 961], more than 1 µM.
In the case of `CC(C)NC(=O)c1csc(-c2c(-c3ccc(F)cc3)noc2CNCCOc2ccccc2)n1` [Example 1454], the IC50 was more than 1 µM.
In turn, `COc1ccc(CNCc2nc(-c3ccc(F)cc3)c(-c3nc(C(=O)NC(C)C)cs3)o2)cc1OC` [Example 1162] had an IC50 of more than 1 µM.
With `CC(C)NC(=O)c1csc(-c2c(-c3ccc(F)cc3)noc2CNCc2ccc(F)cc2F)n1` [Example 1465], the IC50 was more than 1 µM.
On the same count and under the same terms, as for `Cc1nc(-c2ccc(F)cc2)c(-c2nc(C(=O)Nc3ccc(N(C)C)cc3)cs2)s1` [Example 2009], the figure is not above 1 µM.
Take `CC(C)NC(=O)c1csc(-c2c(-c3ccc(F)cc3)noc2CNCc2ccc(F)c(Cl)c2)n1` [Example 1483]: the IC50 is more than 1 µM.
The compound `Cc1nc(-c2ccc(F)cc2)c(-c2nc(C(=O)Nc3ccccc3C(=O)c3ccccc3)cs2)s1` [Example 2018] yielded an IC50 of more than 1 µM.
On the same count and under the same terms, the result for `N#CCCNC(=O)c1csc(-c2c(-c3ccc(F)cc3)n[nH]c2C2CCNCC2)n1` [Example 2037] reads more than 1 µM.
On the same count and under the same terms, as for `COc1ccc(/C=C/C(=O)N2CCC(c3[nH]nc(-c4ccc(F)cc4)c3-c3nc(C(=O)NC(C)C)cs3)CC2)cc1O` [Example 976], the figure is more than 1 µM; as for `CC(C)NC(=O)c1csc(-c2c(-c3ccc(F)cc3)noc2CNC(=O)C(Cc2ccc(O)cc2)NC(=O)OC(C)(C)C)n1` (centres unmarked) [Example 809], more than 1 µM; as for `CC(C)NC(=O)c1csc(-c2c(-c3ccc(F)cc3)n[nH]c2C2CCN(C(=O)C(NC(=O)OC(C)(C)C)C(C)C)CC2)n1` (centres unmarked) [Example 1012], more than 1 µM.
`Cc1nc(-c2ccc(F)cc2)c(-c2nc(C(=O)N(C)CC(C)C)cs2)s1` [Example 1842] showed a half-maximal inhibitory concentration (IC50) of more than 1 µM.
On the same count and under the same terms, the result for `COc1ccc(CCNC(=O)c2csc(-c3sc(C)nc3-c3ccc(F)cc3)n2)cc1` [Example 1799] reads not above 1 µM.
Consider `CCOC(=O)N1CCC(NCc2nc(-c3ccc(F)cc3)c(-c3nc(C(=O)NC(C)C)cs3)o2)CC1` [Example 1164], for which the IC50 was more than 1 µM.
Regarding `CC(C)NC(=O)c1csc(-c2c(-c3ccc(F)cc3)n[nH]c2C2CCN(C(=O)/C=C/c3ccccc3)CC2)n1` [Example 845], the IC50 is more than 1 µM.
Still for that read-out and setting: the result for `CCN(C(=O)NCCCN(C)C)C(=O)c1csc(-c2c(-c3ccc(F)cc3)ncn2C2CCNCC2)n1` [Example 2192, 3-(3-Dimethylamino-propyl)-1-ethyl-1-{2-|5-(4-fluoro-phenyl)-3-piperidin-4-yl-3H-imidazol-4-yl|-thiazole-4-carbonyl}-urea] reads more than 1 µM.
On the same count and under the same terms, as for `O=C(NCCc1cccc(Cl)c1)c1csc(-c2c(-c3ccc(F)cc3)n[nH]c2C2CCNCC2)n1` [Example 2128], the figure is more than 1 µM; as for `CCCCN(Cc1ccccc1)Cc1onc(-c2ccc(F)cc2)c1-c1nc(C(=O)NC(C)C)cs1` [Example 1569], more than 1 µM.
The same measure, in the same setting: as for `CC(C)NC(=O)c1csc(-c2c(-c3ccc(F)cc3)noc2CNCc2ccccn2)n1` [Example 1417], the figure is more than 1 µM; as for `O=C(NCCc1ccccc1)c1csc(-c2c(-c3ccc(F)cc3)n[nH]c2C2CCNCC2)n1` [Example 2076], more than 1 µM.
In turn, `CC(C)NC(=O)c1csc(-c2c(-c3ccc(F)cc3)n[nH]c2C2CCN(C(=O)c3cccnc3)CC2)n1` [Example 2179, 2-{3-(4-Fluoro-phenyl)-5-|1-(pyridine-3-carbonyl)-piperidin-4-yl|-1H-pyrazol-4-yl}-thiazole-4-carboxylic acid isopropylamide] showed an IC50 not above 1 µM.
The compound `CC(C)NC(=O)c1csc(-c2c(-c3ccc(F)cc3)noc2CNCc2ccc(F)cc2)n1` [Example 1435] displayed a half-inhibitory concentration (IC50) of more than 1 µM.
Same read-out and setting: as for `Cc1nc(-c2ccc(F)cc2)c(-c2nc(C(=O)Nc3ccc4c(c3)OCCO4)cs2)s1` [Example 2002], the figure is not above 1 µM; as for `Cc1cc(C)c(NCc2nc(-c3ccc(F)cc3)c(-c3nc(C(=O)NC(C)C)cs3)o2)c(C)c1` [Example 1338], more than 1 µM.
The compound `CCCc1ccc(C(=O)N2CCC(c3[nH]nc(-c4ccc(F)cc4)c3-c3nc(C(=O)NC(C)C)cs3)CC2)cc1` [Example 890] gave a half-maximal inhibitory concentration (IC50) of more than 1 µM.
For `CC1CC(C)CN(Cc2onc(-c3ccc(F)cc3)c2-c2nc(C(=O)NC(C)C)cs2)C1` (centres unmarked) [Example 1531], the half-maximal inhibitory concentration (IC50) was more than 1 µM.
